Test results: patent publication US9540418B2, “Polypeptide specifically binding to rare earth nanoparticles and use thereof” (University of Science and Technology of China, priority 2012, dated 2017)

Legend:
HeLa cells [1] = experiment: Effect of RE-1 analogues on cytotoxicity induced by UCN, UCP (MTT, PI staining); type: cell-based; settings: 1 mg/mL, 24 hr
Method: MTT cell vitality assay is performed as follows: The cells to which samples have been added are cultured for 24 hr, and then 0.5 mg/mL MTT solution is added and cultured for 4 hr. The MTT solution in the well is discharged, and then 200 μL DMSO is added, followed by gently shaking the plate on a shaking table for 10 min. Detection is performed using microplate reader (ELX800, purchased from BIO-TEK) at a wavelength of 570 nm.
PI staining assay is performed as follows: The cells to which samples have been added are cultured for 24 hr, and then to the culture Hoechst 33342 (10 mM, purchased from Sigma, USA, Catalog #: B2261) and PI (Propidium Iodide) (10 mM, purchased from Beyotime Biotechnology, Catalog #: ST511) are added for 10 min of staining. Then, the cells are detected and photographed under a fluorescence microscope (Olympus IX71, purchased from Olympus). The number of the cells counted by this assay was 500.
HeLa cells were inoculated into 96-well cell culturing plate at a density of about 1-2×10^4 cells/well, and cultured overnight for further use. At first, the medium was replaced with fresh DMEM medium, and then 1 mg/mL UCN, UCP, UCN+PEG (containing 10 mg PEG), UCN+RE-1, UCP, UCP+RE-1, UCN+RE-2, UCN+RE-3, UCN+RE-5, UCP+RE-2, UCP+RE-3, or UCP+RE-5 were added, respectively. After culturing for 24 hr, MTT cell viability assay and PI staining were performed to detect the mortality of the cells.

[2] = system: living HeLa cells, the immobilized cells, and the cell culturing plate; experiment: Nonspecific adherence of nanophosphors with or without RE-1 coating; type: cell-based; settings: 2 hr treatment, washed 3 times with PBS
Method: Living HeLa cells (purchased from Institute of Biochemistry and Cell Biology, SIBS, CAS) cultured in a 96-well plate, immobilized cells, and cell culturing plate were treated with UCN and UCN-S with or without RE-1 coating for 2 hr, respectively, and then washed with PBS for 3 times. The binding of UCN nanoparticles to the living HeLa cells, the immobilized cells, and the cell culturing plate was observed under a fluorescence microscope (Olympus IX71, Olympus, Japan) equipped with a 980 nm infrared laser (MDL-980 nm 1W, Changchun New Industries Optoelectronics Tech. Co., Ltd, China).

[3] = Binding of FITC-RE-1 to UCP (time, concentration, pH, salt, temperature); settings: 10 μg FITC-RE-1, 100 μg UCP
Method: 10 μg of FITC-RE-1 was incubated with 100 μg of UCP for different time periods (2 min, 10 min, 30 min, 120 min, and 720 min). Then, the amount of FITC-RE-1 fluorescent peptide binding to UCP was measured by using fluorescence spectrophotometer.
100 μg of UCP was incubated with FITC-RE-1 at various concentrations (1 μg, 5 μg, 10 μg, and 20 μg) for 1 hr. The excess and unbound peptides were washed off. The amount of FITC-RE-1 fluorescent peptide binding to UCP was measured by using fluorescence spectrophotometer.
(§1) 10 μg of FITC-RE-1 was incubated with 100 μg of UCP dissolved at different pH values (pH 3, 5, 7, 10) for 1 hr. The excess and unbound peptides were washed off. The amount of FITC-RE-1 fluorescent peptide binding to UCP was measured by using fluorescence spectrophotometer.
as §1, with “salt ion concentrations (0 M, 0.15 M, 0.3 M, and 0.5 M NaCl)” for “pH values (pH 3, 5, 7, 10)”
as §1, with “dissolved in water” for “dissolved”, “temperatures (25° C., 37° C., 55° C., and 80° C.)” for “pH values (pH 3, 5, 7, 10)”

HeLa cells [4] = experiment: Autophagosome formation in HeLa cells by transmission electron microscope; type: cell-based; settings: 100 μg/mL UCN+RE-1 or UCP+RE-1, 24 hr
Method: HeLa cells were inoculated into a 24-well cell culturing plate at a density of about 3-5×10^4 cells/well, and cultured overnight for further use. At first, the medium was replaced with fresh DMEM medium, and then 100 μg/mL UCN, UCP, UCN+RE-1, or UCP+RE-1 was added. An equal volume of PBS was used as blank. After culturing for 24 hr, the cells were collected and in situ fixed with 2.5% glutaral-dimethyl arsine buffer (pH 7.4) at 4° C. for 1 hr, then fixed with 2% osmium tetroxide at room temperature for 1 hr, and then dehydrated with ethanol gradients. Then, the cell samples were embedded into epoxy resin (EPON812). The embedded cell samples were cut into ultrathin slices, which were stained with uranyl acetate and lead citrate, and observed and imaged under a transmission electron microscope (JEOL-1230, JEOL, Japan).

mice liver = experiment: Liver damage in mice livers (HE staining); type: in vivo, Balb/c mice; settings: UCP+RE-1 or UCP+AP-1, tail vein, 24 hr
Method: Balb/c mice (purchased from SLAC Laboratory Animal (Shanghai, China), 6 weeks old, and weighed 20 g when used) were bred in a sterile housing, and then 300 μg (dosage: 15 mg/kg) UCN, UCN+PEG (containing 10 mg PEG), UCN+RE-1, UCP, UCP+RE-1, or UCP+AP-1 was injected through tail vein. An equal volume of normal saline was injected as a control. After 24 hr, the livers of the mice were removed and subjected to western blotting assay.
The mice livers obtained as described in Example 21 were in situ fixed with 2.5% glutaral-dimethyl arsine buffer (pH 7.4) at 4° C. for 1 hr, then fixed with 2% osmium tetroxide at room temperature for 1 hr, and then dehydrated with ethanol gradients. Then, the cell samples were embedded in paraffin. The embedded cell samples were cut into ultrathin slices, which were stained with HE (hematoxylin-eosin), and observed and imaged under fluorescence microscope.

HeLa cells [5] = experiment: Adherence of UCN coated with RE-1 or RE-1-RGD to HeLa cells; type: cell-based; settings: 37° C., 2 hr, versus uncoated
Method: HeLa cells were cultured on a coverslip (22 mm×22 mm), which was then placed into a 6-well plate with the cells facing upward or downward, and the coverslip was supported by a sterilized glass cube (2 mm×2 mm×2 mm). Then, 4 mL of DMEM medium containing the rare-earth upconversion nanophosphors coated with RE-1 or RE-1-RGD or without any coating was slowly poured into the 6-well plate, such that the cells were fully immersed in the medium, and the coverslip was just located at the middle of the height of the liquid. The cells were placed into a cell incubator at 37° C. for 2 hr, and then washed with PBS 3 times. The UCNs adhered to the surfaces of the cells were observed under a fluorescence microscope (Olympus IX71, Olympus, Japan) equipped with a 980-nm infrared laser (MDL-980 nm 1 W, Changchun New Industries Optoelectronics Tech. Co., Ltd, China).

With “ACTARSPWICG [RE-1, RE-0 with terminal amino acids A and G added]” the “inhibitory effect of coating on cytotoxicity induced by UCN and UCP” value (HeLa cells [1]) was “RE-1>RE-3>RE-5”, the “nonspecific adherence of UCN coated with RE-1 versus UCN without RE-1 coating” value [2] was “about 10 times lower” and the “nonspecific adherence of UCN-S coated with RE-1 versus UCN-S without RE-1 coating” value [2] was “about 100 times lower”. For the same sequence, the “binding to UCP at 2 min” value ([3]; 2 min) was 50%, the “binding to UCP at 10 min” value ([3]; 10 min) was “almost binding saturation” and the “inhibition of autophagosome formation induced by UCN, UCP” value (HeLa cells [4]) was “significantly inhibited”. The “effect of coating on liver damage induced by UCP” value (mice liver) was “significantly reduced the level of the damages to livers” and the “number of coated upconversion nanophosphors adhered to the surface of the cells” value (HeLa cells [5]) was “greatly reduced”.
